Laboratory results as given in ChEMBL document CHEMBL4715885, “Novel dual LSD1/HDAC6 inhibitors for the treatment of multiple myeloma” (Bioorg Med Chem Lett, 2021).
Values after ≈ are worked out from the molar mass of the structure shown. Each block holds one molecule with its values, some of them ahead of it. Active and inactive are the calls of the source. The rule behind the calls is not given here.

Assays:
[1] = molecular target: T1, Protein deacetylase HDAC6 (Homo sapiens, UniProt Q9UBN7); assay: Inhibition of human HDAC6 (unknown origin) using RHKKAc as substrate by fluorescence method
T1 sequence (Q9UBN7 whole entry): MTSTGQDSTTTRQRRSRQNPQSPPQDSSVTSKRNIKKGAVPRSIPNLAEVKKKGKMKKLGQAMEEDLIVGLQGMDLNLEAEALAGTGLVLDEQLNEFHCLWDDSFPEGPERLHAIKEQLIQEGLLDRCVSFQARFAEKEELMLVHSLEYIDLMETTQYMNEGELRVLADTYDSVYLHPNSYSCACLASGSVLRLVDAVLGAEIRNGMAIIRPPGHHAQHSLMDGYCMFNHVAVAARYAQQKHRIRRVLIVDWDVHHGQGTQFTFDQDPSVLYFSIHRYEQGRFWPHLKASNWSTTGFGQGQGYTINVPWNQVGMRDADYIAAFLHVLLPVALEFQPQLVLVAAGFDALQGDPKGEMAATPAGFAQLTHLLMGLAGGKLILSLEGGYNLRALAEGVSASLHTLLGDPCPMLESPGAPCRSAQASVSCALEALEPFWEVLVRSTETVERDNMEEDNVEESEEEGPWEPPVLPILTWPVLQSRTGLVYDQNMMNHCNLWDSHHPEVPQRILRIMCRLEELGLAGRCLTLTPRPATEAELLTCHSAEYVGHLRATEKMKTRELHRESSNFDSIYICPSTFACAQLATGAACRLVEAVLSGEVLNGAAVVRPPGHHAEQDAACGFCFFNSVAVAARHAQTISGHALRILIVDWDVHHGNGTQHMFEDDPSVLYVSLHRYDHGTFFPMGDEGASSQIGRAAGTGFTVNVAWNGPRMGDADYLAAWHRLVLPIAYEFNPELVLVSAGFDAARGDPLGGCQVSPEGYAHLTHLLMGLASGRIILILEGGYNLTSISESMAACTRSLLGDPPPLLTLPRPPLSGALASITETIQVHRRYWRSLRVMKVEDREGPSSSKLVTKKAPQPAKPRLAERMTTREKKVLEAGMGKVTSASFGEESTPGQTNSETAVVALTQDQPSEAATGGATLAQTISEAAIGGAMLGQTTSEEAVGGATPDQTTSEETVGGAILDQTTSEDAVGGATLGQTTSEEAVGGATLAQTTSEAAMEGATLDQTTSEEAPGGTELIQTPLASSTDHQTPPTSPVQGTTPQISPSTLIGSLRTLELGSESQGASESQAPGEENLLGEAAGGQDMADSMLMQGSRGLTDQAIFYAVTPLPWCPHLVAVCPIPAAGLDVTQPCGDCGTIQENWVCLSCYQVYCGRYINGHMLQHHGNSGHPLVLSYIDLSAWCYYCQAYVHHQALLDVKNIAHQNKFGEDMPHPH

MM1.S [2] = assay: Antiproliferative activity against human MM1.S cells assessed as reduction in cell viability after 144 hrs; format: functional, cell-based
MM1.S [3] = assay: Antiproliferative activity against human MM1.S cells assessed as reduction in cell viability at 10 uM after 144 hrs relative to control; format: functional
[4] = molecular target: Histone deacetylase 1 (Homo sapiens) (UniProt Q13547); assay: Inhibition of human HDAC1 at 1uM using RHKKAc as substrate by fluorescence method relative to control
Sequence of Histone deacetylase 1 (Homo sapiens) (Q13547 whole entry): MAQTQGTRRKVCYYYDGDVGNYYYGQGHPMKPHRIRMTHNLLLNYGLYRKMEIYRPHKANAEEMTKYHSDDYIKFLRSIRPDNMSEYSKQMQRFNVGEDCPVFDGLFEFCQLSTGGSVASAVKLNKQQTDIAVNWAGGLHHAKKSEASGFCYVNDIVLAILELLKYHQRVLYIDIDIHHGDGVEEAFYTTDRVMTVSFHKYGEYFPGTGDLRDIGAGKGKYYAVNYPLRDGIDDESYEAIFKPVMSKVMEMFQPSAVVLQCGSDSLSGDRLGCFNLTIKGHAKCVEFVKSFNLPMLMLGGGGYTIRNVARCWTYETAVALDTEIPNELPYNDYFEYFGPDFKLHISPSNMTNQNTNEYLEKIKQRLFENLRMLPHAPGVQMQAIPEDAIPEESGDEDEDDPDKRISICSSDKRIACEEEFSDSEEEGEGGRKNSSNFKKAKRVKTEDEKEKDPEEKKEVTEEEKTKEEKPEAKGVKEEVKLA

[5] = Clearance in Balb/c mouse at 50 mg/kg, po; format: ADME, organism-based; conditions: in vivo
[6] = Antiproliferative activity against human MM1.R cells assessed as reduction in cell viability after 144 hrs; format: functional, cell-based; conditions: MM.1R
[7] = molecular target: Voltage-gated inwardly rectifying potassium channel KCNH2 (Homo sapiens, UniProt Q12809); assay: Inhibition of human ERG
Sequence of Voltage-gated inwardly rectifying potassium channel KCNH2 (Q12809 whole entry): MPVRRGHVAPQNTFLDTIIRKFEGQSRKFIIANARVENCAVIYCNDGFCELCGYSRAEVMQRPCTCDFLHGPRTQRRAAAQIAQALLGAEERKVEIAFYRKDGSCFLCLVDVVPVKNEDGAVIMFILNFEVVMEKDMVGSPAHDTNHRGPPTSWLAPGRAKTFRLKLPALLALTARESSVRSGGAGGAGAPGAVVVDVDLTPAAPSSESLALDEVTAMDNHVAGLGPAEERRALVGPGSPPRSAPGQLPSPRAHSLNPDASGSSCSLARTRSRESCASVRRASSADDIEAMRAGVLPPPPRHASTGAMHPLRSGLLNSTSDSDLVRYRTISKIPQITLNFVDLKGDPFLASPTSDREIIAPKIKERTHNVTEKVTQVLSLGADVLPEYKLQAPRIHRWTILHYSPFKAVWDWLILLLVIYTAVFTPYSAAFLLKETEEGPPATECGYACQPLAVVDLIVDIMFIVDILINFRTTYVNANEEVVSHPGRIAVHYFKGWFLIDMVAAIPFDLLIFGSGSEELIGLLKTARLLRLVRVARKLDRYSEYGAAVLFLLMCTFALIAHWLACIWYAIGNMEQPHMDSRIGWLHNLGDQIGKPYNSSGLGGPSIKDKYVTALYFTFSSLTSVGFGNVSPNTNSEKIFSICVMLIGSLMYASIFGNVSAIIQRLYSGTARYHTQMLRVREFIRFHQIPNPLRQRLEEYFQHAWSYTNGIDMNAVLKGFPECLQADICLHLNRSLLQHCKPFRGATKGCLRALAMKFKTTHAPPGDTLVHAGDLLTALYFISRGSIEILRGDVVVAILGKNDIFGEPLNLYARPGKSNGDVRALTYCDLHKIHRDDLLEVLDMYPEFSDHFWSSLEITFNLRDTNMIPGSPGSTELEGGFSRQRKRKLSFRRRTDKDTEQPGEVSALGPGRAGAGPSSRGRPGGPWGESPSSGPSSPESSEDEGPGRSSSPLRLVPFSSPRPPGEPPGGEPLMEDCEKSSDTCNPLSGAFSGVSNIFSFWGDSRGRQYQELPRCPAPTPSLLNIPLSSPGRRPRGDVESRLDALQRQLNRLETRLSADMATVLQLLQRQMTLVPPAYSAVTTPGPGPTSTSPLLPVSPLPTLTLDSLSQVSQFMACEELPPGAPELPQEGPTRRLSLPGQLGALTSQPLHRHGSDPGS

[8] = Oral bioavailability in Balb/c mouse at 50 mg/kg; format: ADME, organism-based; conditions: in vivo
[9] = Solubility of compound; format: physicochemical
CYP2D6 = CYP2D6 (Homo sapiens, UniProt P10635); assay: Inhibition of CYP2D6 (unknown origin) at 10 uM relative to control; format: ADME
Sequence of CYP2D6 (P10635 whole entry): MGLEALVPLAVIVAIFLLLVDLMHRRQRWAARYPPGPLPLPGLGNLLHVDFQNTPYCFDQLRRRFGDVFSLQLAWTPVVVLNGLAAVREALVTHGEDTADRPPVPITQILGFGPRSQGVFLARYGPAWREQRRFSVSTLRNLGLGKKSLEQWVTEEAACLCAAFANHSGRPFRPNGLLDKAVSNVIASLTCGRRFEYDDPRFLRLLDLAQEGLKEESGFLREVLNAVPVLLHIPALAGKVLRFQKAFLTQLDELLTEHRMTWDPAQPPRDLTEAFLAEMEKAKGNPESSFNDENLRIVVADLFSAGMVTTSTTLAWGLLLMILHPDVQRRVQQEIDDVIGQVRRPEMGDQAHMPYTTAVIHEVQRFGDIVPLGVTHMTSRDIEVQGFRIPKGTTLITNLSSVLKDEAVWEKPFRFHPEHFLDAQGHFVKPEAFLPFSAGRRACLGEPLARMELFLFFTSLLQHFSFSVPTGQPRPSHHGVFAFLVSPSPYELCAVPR

RPMI-8226 = assay: Antiproliferative activity against human RPMI-8226 cells assessed as reduction in cell viability after 144 hrs; format: functional, cell-based; conditions: RPMI-8226, 144 h
[10] = Permeability from apical to basolateral side in human Caco2 cells; format: ADME, cell-based; conditions: Caco-2, read-out: permeability
[11] = Inhibition of HDAC phosphorylation (unknown origin); design: species or system Homo sapiens
[12] = Cmax in Balb/c mouse at 10 mg/kg, iv; format: ADME, organism-based; design: route intravenous, dose 10 mg/kg; conditions: in vivo
CYP3A4 = CYP3A4 (Homo sapiens, UniProt P08684); assay: Inhibition of CYP3A4 (unknown origin) at 10 uM relative to control; format: ADME
Sequence of CYP3A4 (P08684 whole entry): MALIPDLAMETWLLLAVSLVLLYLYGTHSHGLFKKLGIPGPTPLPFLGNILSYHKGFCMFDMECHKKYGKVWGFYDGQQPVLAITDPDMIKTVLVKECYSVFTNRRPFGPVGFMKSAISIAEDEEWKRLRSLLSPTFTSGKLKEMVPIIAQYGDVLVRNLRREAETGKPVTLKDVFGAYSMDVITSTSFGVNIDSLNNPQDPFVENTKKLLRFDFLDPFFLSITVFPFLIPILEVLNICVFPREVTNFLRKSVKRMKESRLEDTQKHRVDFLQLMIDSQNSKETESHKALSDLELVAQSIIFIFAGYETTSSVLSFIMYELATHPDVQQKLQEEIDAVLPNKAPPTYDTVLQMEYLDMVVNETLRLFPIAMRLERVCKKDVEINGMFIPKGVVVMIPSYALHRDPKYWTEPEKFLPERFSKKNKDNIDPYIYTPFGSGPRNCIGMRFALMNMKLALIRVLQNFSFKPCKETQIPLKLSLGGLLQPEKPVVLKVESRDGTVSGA

[13] = molecular target: T2, Amine oxidase [flavin-containing] B (Homo sapiens, UniProt P27338); assay: Inhibition of MAO-B (unknown origin)
T2 sequence (P27338 whole entry): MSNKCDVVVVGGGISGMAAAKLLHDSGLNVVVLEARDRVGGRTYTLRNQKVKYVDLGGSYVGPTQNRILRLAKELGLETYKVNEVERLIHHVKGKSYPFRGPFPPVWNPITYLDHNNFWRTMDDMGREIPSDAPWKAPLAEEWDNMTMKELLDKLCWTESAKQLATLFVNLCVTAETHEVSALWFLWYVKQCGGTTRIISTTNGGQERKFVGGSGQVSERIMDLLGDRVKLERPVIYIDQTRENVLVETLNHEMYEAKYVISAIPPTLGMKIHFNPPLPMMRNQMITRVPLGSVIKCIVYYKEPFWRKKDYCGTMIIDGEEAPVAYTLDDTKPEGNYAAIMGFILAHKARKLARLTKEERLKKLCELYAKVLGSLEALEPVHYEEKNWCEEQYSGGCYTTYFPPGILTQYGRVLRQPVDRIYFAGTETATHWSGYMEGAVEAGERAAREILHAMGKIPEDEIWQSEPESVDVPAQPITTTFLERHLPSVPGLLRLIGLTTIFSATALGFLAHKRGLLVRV

[14] = Cmax in Balb/c mouse at 50 mg/kg, po; format: ADME, organism-based; design: route oral, dose 50 mg/kg; conditions: in vivo
MM1.S [15] = assay: Antitumour activity against human MM1.S cells xenografted in SCID mouse assessed as tumour growth inhibition at 25 mg/kg, po for 12 days relative to control; format: functional; conditions: 288 h, time 12 day, read-out: TGI
[16] = Permeability from basolateral to apical side in human Caco2 cells; format: ADME, cell-based; conditions: Caco-2, read-out: permeability
[17] = molecular target: T3, Amine oxidase [flavin-containing] A (Homo sapiens, UniProt P21397); assay: Inhibition of MAO-A (unknown origin)
T3 sequence (P21397 whole entry): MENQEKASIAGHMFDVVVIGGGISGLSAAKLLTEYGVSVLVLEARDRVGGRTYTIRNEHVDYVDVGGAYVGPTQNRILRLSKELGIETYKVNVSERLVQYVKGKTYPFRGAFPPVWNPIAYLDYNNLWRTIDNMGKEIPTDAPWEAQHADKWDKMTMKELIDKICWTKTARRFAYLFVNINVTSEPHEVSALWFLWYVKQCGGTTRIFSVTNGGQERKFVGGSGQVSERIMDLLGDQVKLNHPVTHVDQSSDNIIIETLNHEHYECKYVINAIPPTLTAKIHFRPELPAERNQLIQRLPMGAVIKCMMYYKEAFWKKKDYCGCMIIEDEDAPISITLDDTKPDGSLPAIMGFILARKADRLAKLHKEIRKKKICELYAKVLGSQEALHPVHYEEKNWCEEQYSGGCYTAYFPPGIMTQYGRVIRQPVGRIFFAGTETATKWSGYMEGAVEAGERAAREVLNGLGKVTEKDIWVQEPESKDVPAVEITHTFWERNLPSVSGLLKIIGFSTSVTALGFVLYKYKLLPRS

[18] = AUC (0 to t) in Balb/c mouse at 10 mg/kg, iv; format: ADME, organism-based; design: dose 10 mg/kg; conditions: in vivo
[19] = Half life in Balb/c mouse at 10 mg/kg, iv; format: ADME, organism-based; conditions: in vivo
[20] = molecular target: T4, Polyamine deacetylase HDAC10 (Homo sapiens, UniProt Q969S8); assay: Inhibition of HDAC10 (unknown origin)
T4 sequence (Q969S8 whole entry): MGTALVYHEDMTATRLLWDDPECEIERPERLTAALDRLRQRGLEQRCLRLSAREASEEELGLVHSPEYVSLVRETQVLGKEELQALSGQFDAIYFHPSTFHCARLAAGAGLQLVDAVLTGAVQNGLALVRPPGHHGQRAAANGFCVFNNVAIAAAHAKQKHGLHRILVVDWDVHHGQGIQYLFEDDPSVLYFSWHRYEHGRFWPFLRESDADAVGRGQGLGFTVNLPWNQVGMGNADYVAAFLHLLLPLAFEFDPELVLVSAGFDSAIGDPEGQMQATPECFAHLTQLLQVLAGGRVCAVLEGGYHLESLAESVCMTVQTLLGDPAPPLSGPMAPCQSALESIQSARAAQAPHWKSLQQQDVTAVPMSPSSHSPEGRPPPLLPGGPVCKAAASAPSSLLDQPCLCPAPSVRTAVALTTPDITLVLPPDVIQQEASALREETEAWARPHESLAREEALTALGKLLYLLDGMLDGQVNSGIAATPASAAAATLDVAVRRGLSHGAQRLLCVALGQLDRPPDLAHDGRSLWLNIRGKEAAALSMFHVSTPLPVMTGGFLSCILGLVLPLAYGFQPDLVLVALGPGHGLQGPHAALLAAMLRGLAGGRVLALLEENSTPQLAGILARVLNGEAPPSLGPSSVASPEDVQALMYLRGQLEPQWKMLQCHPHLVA

[21] = Half life in Balb/c mouse at 50 mg/kg, po; format: ADME, organism-based; conditions: in vivo
[22] = Drug concentration in tumour of mouse xenografted with human MM1.S cells at 50 mg/kg, po dosed daily for 12 days; format: ADME, organism-based, Neoplasm; conditions: time 12 day, read-out: Drug uptake
[23] = Drug concentration in plasma of mouse xenografted with human MM1.S cells at 50 mg/kg, po dosed daily for 12 days; format: ADME, organism-based; conditions: time 12 day
[24] = Toxicity in SCID mouse xenografted with human MM1.S cells assessed as induction of body weight loss at 50 mg/kg, po dosed daily for 12 days; format: organism-based; conditions: in vivo, 288 h, time 12 day
[25] = Volume of distribution in Balb/c mouse at 50 mg/kg, po; format: ADME, organism-based; conditions: in vivo
[26] = Protein binding in plasma (unknown origin) assessed as unbound fraction; format: ADME, cell-free
[27] = Stability in mouse liver microsomes assessed as parent compound remaining measured after 30 mins; format: ADME, Microsome; conditions: microsomes, 0.5 h
[28] = Stability in human liver microsomes assessed as parent compound remaining measured after 30 mins; format: ADME, Microsome; conditions: microsomes, 0.5 h
[29] = Initial plasma concentration in Balb/c mouse at 50 mg/kg, po; format: ADME, organism-based; conditions: in vivo

Structure (SMILES): Cl.Cl.NC1CCC(N[C@@H]2C[C@H]2c2ccccc2)CC1 (some centres not stated)
IC50 [1]: Not Active | EC50 (MM1.S [2]): > 10 µM | Activity (MM1.S [3]): 30% | inhibition [4]: inactive

CL/F [5]: 233 mL/min/kg | bioavailability [8]: 44% | solubility [9]: 110 µM (≈ 44.8 µg/mL) | inhibition at 10 µM (CYP2D6): 54% | EC50 (RPMI-8226): 0.28 µM | Papp A→B [10]: 2.67 ×10⁻⁶ cm/s | IC50 [11]: 1.78 µM | Cmax [12]: 821 ng/mL | inhibition at 10 µM (CYP3A4): 11% | IC50 [13]: 6.6 µM | Cmax [14]: 904 ng/mL | Papp B→A [16]: 9.6 ×10⁻⁶ cm/s | IC50 [17]: 8.6 µM | AUC(0-t) [18]: 1520 ng·h/mL | half-life [19]: 3.3 h | IC50 [20]: > 10 µM | half-life [21]: 2.5 h | concentration at 288 h [22]: 216 ng/mL | concentration at 288 h [23]: 52 ng/mL | Vd [25]: 66 L/kg | fraction unbound [26]: 0.45 | Stabilty [27]: 56% | Stabilty [28]: 40% | C0 [29]: 1406 ng/mL
Structure (SMILES): O=C(NO)c1ccc(CCCN2CCC(CN[C@H]3C[C@@H]3c3ccccc3)CC2)cc1 (racemic)
EC50 [6]: 0.006 µM | IC50 [7]: 5.6 µM | inhibition in vivo at 25 mg/kg (MM1.S [15]): 67% | Activity [24]: Non-Toxic
